Measured values taken from patent publication US5198419A, “Formulated medicines for enhancing the efficacy of beta-lactam antibiotics in prophylaxis and treatment against infectious disease due to pathogenic bacteria” (Immuno Japan Inc., priority 1989, dated 1993).

Tests used:
[1] = system: Escherichia coli #11; experiment: Example 6: experimental infection in mice, ampicillin with or without apolactoferrin; assay type: in vivo, strain ddY; details: p.o. immediately after 1.2×10^6 CFU/mouse
Protocol: (§1) For ED50 values, a range of amounts of antibiotics is given in the examples (e.g., penicillin G: 0.4, 0.2, 0.1, 0.05 mg/mouse). To calculate the ED50, groups of mice in the monotherapy groups and groups of mice in the combined therapy groups received the indicated amount of antibiotic (e.g., one group received 0.4 mg/mouse of penicillin G, one group received 0.2 mg/mouse of penicillin G, one group received 0.1 mg/mouse of penicillin G, one group received 0.05 mg/mouse of penicillin G).
Male mice, strain ddY, five weeks old, weighing an average of 21.5 g, were randomly allocated into groups (n=10), and they were intraperitoneally injected with Escherichia coli #11, 1.2×10^6 CFU/mouse. Immediately after the injection, the untreated control group was orally given 0.2 ml of distilled water, the second through the fifth groups were treated once orally by ampicillin (8, 4, 2 and 1 mg/mouse), and the sixth through the ninth groups with ampicillin (4, 2, 1 and 0.5 mg/mouse) plus apolactoferrin (1 mg/mouse) in 0.2 ml of distilled water. The mice were fed ad libitum and observed for one week under the same conditions as described in Example 1. […] It is apparent from the results that lactoferrin not only potentiates the efficacy of the cephalosporin class but also the penicillin class of antibiotics.

[2] = system: Proteus mirabilis GN79; experiment: Example 7: experimental infection in mice, ampicillin with or without native lactoferrin; assay type: in vivo, strain ddY; details: GN79, po, 168 h, 1.3 × 10^6 CFU/mouse
Protocol: as §1
Male mice, strain ddY, five weeks old, were randomly allocated into groups (n=10), and were intraperitoneally injected with Proteus mirabilis GN79 (1.3×10^6 CFU/mouse) or with Escherichia coli #11 (1.7×10^6 CFU/mouse) or with Klebsiella pneumoniae 3K25 (1.5×10^6 CFU/mouse). The doses are 1,000 times greater than the minimum lethal dose. Immediately after the injection, the first eight groups were orally given ampicillin, the second eight groups were orally given cephalexin, and the third eight groups were orally given cefaclor, respectively, each simultaneously with or without native lactoferrin (1 mg/mouse) in 0.2 ml of distilled water (see Table 7). All the mice were fed ad libitum and observed for one week under the same conditions as described in Example 1.

[3] = system: Klebsiella pneumoniae strain 3K25; experiment: Example 4: experimental infection in mice, cefotetan with or without native lactoferrin; assay type: in vivo; details: p.o. 1 h after 1×10^6 CFU/mouse
Protocol: as §1
The experimental design is similar to that of Example 3. The mice groups (n=6) were intraperitoneally injected with Klebsiella pneumoniae strain 3K25, 1×10^6 CFU/mouse, and one hour after the injection, orally active cephalosporin, cefotetan (2.0, 1.0, 0.5 and 0.25 mg/mouse) was orally administered with or without native lactoferrin (0.4 mg/mouse) in 0.2 ml physiological saline.

CC1(C)S[C@@H]2[C@H](NC(=O)[C@H](N)c3ccccc3)C(=O)N2[C@H]1C(=O)O [ampicillin]
ED50 ([1]; ampicillin combined therapy with apolactoferrin (1 mg/mouse)): 0.75 mg/mouse | ED50 ([1]; ampicillin monotherapy): 6.02 mg/mouse | ED50 ([2]; ampicillin alone): 133 mg/kg | ED50 ([2]; ampicillin with lactoferrin (1 mg/mouse)): 24.9 mg/kg

CO[C@@]1(NC(=O)C2SC(=C(C(N)=O)C(=O)O)S2)C(=O)N2C(C(=O)O)=C(CSc3nnnn3C)CS[C@@H]21 (stereo partly drawn) [cefotetan]
ED50 ([3]; cefotetan combined therapy with native lactoferrin (0.4 mg/mouse)): 0.16 mg/mouse | ED50 ([3]; cefotetan monotherapy): 0.50 mg/mouse
